Laboratory results as given in patent publication US20060263444A1, “Antimicrobial composition” (priority 2005, published 2006).
Several values for one entry are separate records, joined by “and”; a condition that tells them apart may be missing. Identical values can stand only once. Like-named read-outs stand apart in the source and are kept apart here.

Assays:
E. coli [1] = experiment: Viable plate count after 24 hr incubation in trypticase soy broth culture; type: cell-based
Experimental: (§1) Sequential dilutions of the above two stock solutions were then prepared also in sterile saline. A portion of 0.05 ml of each dilution was added to 0.95 ml of bacterial culture (trypticase soy broth containing 10^6 CFU/ml). […] The test cultures were incubated at 37° C. for 24 hr, the total viable bacteria were numerated by plate count on Trypticase® soy agar (BBL) containing inactivating agent. The plates were incubated at 37° C. for 48 hr and reported as colony forming unit/ml (CFU/ml).

S. aureus [2] = type: cell-based
Experimental: as §1

E. coli [3] = experiment: Zone of inhibition assay of coated sutures; type: cell-based; conditions: coated suture; 0.5% in coating solution; 37° C. 48 hr
Experimental: (§2) The coating solutions were made by dissolving a L(−) lactide/glycolide copolymer containing 65 mole % lactide and 35 mole % glycolide (4.5%) and calcium stearate (4.5%) in ethyl acetate. […] The sutures were hand coated by dipping into the coating solution containing antimicrobial composition and then air dried at room temperature for 8 hr. […] A Petri dish was inoculated with about 10^5 cfu/suture and a portion of 20 ml of TSA tempered at 47° C. was added into the Petri dish. The inoculum was mixed thoroughly with the medium and the suture was placed in the middle of the Petri dish. The inoculated Petri dishes were incubated at 37° C. for 48 hr and then the zone of inhibition was measured with a digital caliper.
(§3) The zone of inhibition assay was performed against S. aureus and E. coli over a two-day period.

[4] = rats; cited from earlier work
[5] = test system: Staphylococcus aureus, E. coli and C. albicans; experiment: Zone of inhibition assay of coated sutures, summary in text; type: cell-based; conditions: coated suture
Experimental: as §2, §3

[6] = animals and humans; cited from earlier work
C. albicans [7] = experiment: Zone of inhibition assay of coated sutures; type: cell-based; conditions: coated suture; 0.5% in coating solution; 37° C. 48 hr
S. aureus [8] = experiment: Zone of inhibition assay of coated sutures; type: cell-based, Staphylococcus aureus; conditions: coated 2-0 polyglactin 910 suture; 0.5% in coating solution; 37° C. 48 hr
Experimental: as §2, §3

E. faecium = experiment: Viable plate count after 24 hr incubation in trypticase soy broth culture; type: cell-based
Experimental: as §1

C. albicans [9] = experiment: as above; type: cell-based
Experimental: as §1

P. aeruginosa = experiment: as above; type: cell-based
Experimental: as §1

[10] = single agent 10 ppm, 37° C. 24 hr

| SMILES | CFU/ml E. coli (E. coli [1]; Table 2, single agent 10 ppm) | CFU/ml E. coli (E. coli [1]; Table 2, single agent 20 ppm) | CFU/ml S. aureus (S. aureus [2]; Table 2, single agent 10 ppm) | CFU/ml S. aureus (S. aureus [2]; Table 2, single agent 20 ppm) | Zone of inhibition(mm) E. coli (E. coli [3]) | absorption and metabolism [4] | zone of inhibition [5] | toxicological finding [6] | Zone of inhibition(mm) C. albicans (C. albicans [7]) | Zone of inhibition(mm) S. aureus (S. aureus [8]) | reduction of viable bacteria compared to the control, E. coli (E. coli [1]) | CFU/ml E. coli (E. coli [1]; monohydrochloride) | reduction of viable bacteria compared to the control, E. faecium (E. faecium; alone at 10 ppm) | CFU/ml E. faecium (E. faecium; [10]) | reduction of viable bacteria compared to the control, C. albicans (C. albicans [9]; alone at 10 ppm) | CFU/ml C. albicans (C. albicans [9]; [10]) | reduction of viable bacteria compared to the control, P. aeruginosa (P. aeruginosa; alone at 10 ppm) | CFU/ml P. aeruginosa (P. aeruginosa; [10]) | CFU/ml S. aureus (S. aureus [2]) |
| --- | --- | --- | --- | --- | --- | --- | --- | --- | --- | --- | --- | --- | --- | --- | --- | --- | --- | --- | --- |
| O=[N+]([O-])[O-].[Ag+] [AgNO3, silver nitrate] | 1.2 × 10^9 CFU/ml | 1.0 × 10^8 CFU/ml | 9.3 × 10^8 CFU/ml | 2.2 × 10^8 CFU/ml |  |  |  |  |  |  |  |  |  |  |  |  |  |  |  |
| CCCCCCCCCCCC(=O)N[C@@H](CCCN=C(N)N)C(=O)OCC.Cl [LAE, ethyl ester of the lauramide of the arginine monohydrochloride] |  |  |  |  | 0 mm | fast absorption and metabolism into naturally-occurring amino acids and the lauric acid | no zones of inhibition | completely harmless to animals and humans | 0 mm | 0 mm | no inhibition | 1.0 × 10^9 CFU/ml and 1.1 × 10^9 CFU/ml | < 2 log | 5.0 × 10^7 CFU/ml | < 2 log | 6.0 × 10^7 CFU/ml | no inhibition | 1.0 × 10^9 CFU/ml | 6.4 × 10^8 CFU/ml |
